How the values were obtained:
AVEFA [1] = test: Post-emergence herbicidal action against AVEFA; type: in vivo, Avena fatua; conditions: 80 g/ha, visual assessment after about 3 weeks
In short: (§1)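 Weeds and crops grown in sandy loam in the greenhouse, treated post-emergence at the one-leaf stage (2–3 weeks after sowing). WP or EC formulations sprayed as aqueous suspension/emulsion at 600–800 l/ha water with 0.2% wetting agent. Visual % activity scored after about 3 weeks versus untreated controls (100% = dead, 0% = like control).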

ALOMY [2] = test: Post-emergence herbicidal action against ALOMY; type: in vivo, Alopecurus myosuroides; conditions: 80 g/ha, visual assessment after about 3 weeks
In short: as §1

LOLRI [3] = test: Pre-emergence herbicidal action against LOLRI (Table 8, titled post-emergence at 320 g/ha); type: in vivo, Lolium rigidum; conditions: table stands in the pre-emergence section
In short: (§2)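 Visual scoring after 3 weeks in the greenhouse gives percent activity (100% = dead, 0% = like untreated). Compounds, formulated as WP or EC, were applied to the soil surface over freshly sown seeds in sandy loam, water rate 600 to 800 L/ha plus 0.2% wetting agent.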

ECHCG [4] = test: Post-emergence herbicidal action against ECHCG; type: in vivo, Echinochloa crus-galli; conditions: 80 g/ha, visual assessment about 3 weeks after treatment vs untreated controls
In short: as §1

ALOMY [5] = test: Pre-emergence herbicidal action against ALOMY; type: in vivo, Alopecurus myosuroides; conditions: 320 g/ha, scored visually after 3 weeks vs untreated controls
In short: as §2

AMARE = test: Pre-emergence herbicidal action against AMARE; type: in vivo, Amaranthus retroflexus; conditions: 320 g/ha
In short: as §2

DIGSA [6] = test: Post-emergence herbicidal action against DIGSA; type: in vivo, Digitaria sanguinalis; conditions: 80 g/ha, visual assessment about 3 weeks after treatment vs untreated controls
In short: as §1

LOLRI [7] = test: Post-emergence herbicidal action against LOLRI; type: in vivo, Lolium rigidum; conditions: 80 g/ha, visual assessment about 3 weeks after treatment vs untreated controls
In short: as §1

ABUTH = test: Post-emergence herbicidal action against ABUTH; type: in vivo, Abutylon threophrasti; conditions: 80 g/ha, visual assessment about 3 weeks after treatment vs untreated controls
Description: Seeds of monocotyledonous and dicotyledonous weed and crop plants are laid out in sandy loam soil in wood-fiber pots, covered with soil and cultivated in a greenhouse under good growth conditions. 2 to 3 weeks after sowing, the test plants are treated at the one-leaf stage. The compounds of the invention, formulated in the form of wettable powders (WP) or as emulsion concentrates (EC), are then sprayed onto the green parts of the plants as aqueous suspension or emulsion at a water application rate equating to 600 to 800 l/ha with addition of 0.2% wetting agent. After the test plants have been left to stand in the greenhouse under optimal growth conditions for about 3 weeks, the action of the preparations is assessed visually in comparison to untreated controls (herbicidal action in percent (%): 100% activity=the plants have died, 0% activity=like control plants).

SETVI [8] = test: Pre-emergence herbicidal action against SETVI; type: in vivo, Setaria viridis; conditions: 320 g/ha, scored visually after 3 weeks vs untreated controls
In short: as §2

VIOTR = test: Pre-emergence herbicidal action against VIOTR; type: in vivo, Viola tricolor; conditions: 320 g/ha
In short: as §2

DIGSA [9] = test: Pre-emergence herbicidal action against DIGSA; type: in vivo, Digitaria sanguinalis; conditions: 320 g/ha, scored visually after 3 weeks vs untreated controls
In short: as §2

ECHCG [10] = test: Pre-emergence herbicidal action against ECHCG; type: in vivo, Echinochloa crus-galli; conditions: 320 g/ha, scored visually after 3 weeks vs untreated controls
In short: as §2

SETVI [11] = test: Post-emergence herbicidal action against SETVI; type: in vivo, Setaria viridis; conditions: 80 g/ha, visual assessment about 3 weeks after treatment vs untreated controls
In short: as §1

MATIN = test: Pre-emergence herbicidal action against MATIN; type: in vivo; conditions: 320 g/ha
From the text: (§3) Seeds of monocotyledonous and dicotyledonous weed plants and crop plants are laid out in sandy loam soil in wood-fiber pots and covered with soil. The compounds of the invention, formulated in the form of wettable powders (WP) or as emulsion concentrates (EC), are then applied to the surface of the covering soil as aqueous suspension or emulsion at a water application rate equating to 600 to 800 L/ha with addition of 0.2% wetting agent.
(§4) After the treatment, the pots are placed in a greenhouse and kept under good growth conditions for the trial plants. The damage to the test plants is scored visually after a test period of 3 weeks by comparison with untreated controls (herbicidal activity in percent (%): 100% activity=the plants have died, 0% activity=like control plants).

AVEFA [12] = test: Pre-emergence herbicidal action against AVEFA; type: in vivo, Avena fatua; conditions: 320 g/ha, scored visually after 3 weeks vs untreated controls
In short: as §2

VERPE = test: Pre-emergence herbicidal action against VERPE; type: in vivo, Veronica persica; conditions: 320 g/ha
From the text: as §3, §4

SMILES	Post-emergence action against AVEFA in % (AVEFA [1]) [%]	Post-emergence action against ALOMY in % (ALOMY [2]) [%]	Pre-emergence herbicidal action against LOLRI in % (LOLRI [3]) [%]	Post-emergence action against ECHCG in % (ECHCG [4]) [%]	Pre-emergence action against ALOMY in % (ALOMY [5]) [%]	Pre-emergence action against AMARE in % (AMARE) [%]	Post-emergence action against DIGSA in % (DIGSA [6]) [%]	Post-emergence action against LOLRI in % (LOLRI [7]) [%]	Post-emergence action against ABUTH in % (ABUTH) [%]	Pre-emergence action against SETVI in % (SETVI [8]) [%]	Pre-emergence action against VIOTR in % (VIOTR) [%]	Pre-emergence action against DIGSA in % (DIGSA [9]) [%]	Pre-emergence action against ECHCG in % (ECHCG [10]) [%]	Post-emergence action against SETVI in % (SETVI [11]) [%]	Pre-emergence action against MATIN in % (MATIN) [%]	Pre-emergence action against AVEFA in % (AVEFA [12]) [%]	Pre-emergence action against VERPE in % (VERPE) [%]
CC#Cc1cc(C)c(C2=C(O)C3(CCC(COCC)C3)NC2=O)c(F)c1 (stereo not shown) [Example I-35]	80	100	100	100	100	90	100	100	80	100	100	100	–	–	–	–	–
CC#Cc1cc(C)c(C2=C(O)C3(CCC(COCCC)C3)NC2=O)c(OC)c1 (stereo not shown) [Example I-59]	90	100	100	100	100	100	100	90	–	100	100	100	100	100	80	–	–
C#CCOCC1CCC2(C1)NC(=O)C(c1c(C)cc(C#CC)cc1Cl)=C2O (stereo not shown) [Example I-78]	80	100	100	90	100	100	90	90	–	100	100	100	100	100	80	90	90
CC#Cc1cc(Br)c(C2=C(OC(=O)OCC)C3(CCC(COCC)C3)NC2=O)c(OC)c1 (stereo not shown) [Example P-01]	–	100	100	100	100	100	100	100	–	100	100	100	100	100	80	100	100
CC#Cc1cc(Br)c(C2=C(OC(=O)OCC)C3(CCC(COCC)C3)NC2=O)c(OC)c1 (stereo not shown) [Example P-05]	–	100	100	100	100	100	100	100	–	100	100	100	100	100	90	100	80
CC#Cc1cc(C)c(C2=C(OC(=O)OCC)C3(CCC(COC)C3)NC2=O)c(OC)c1 (stereo not shown) [Example P-55]	100	100	100	100	100	–	100	100	–	100	100	100	100	100	90	80	80
CC#Cc1cc(C)c(C2=C(OC(=O)C(C)C)C3(CCC(COCC)C3)NC2=O)c(F)c1 (stereo not shown) [Example P-56]	90	100	100	100	100	80	100	100	–	100	100	100	100	100	80	80	–
CC#Cc1cc(F)c(C2=C(OC(=O)C(C)C)C3(CCC(COCC)C3)NC2=O)c(OC)c1 (stereo not shown) [Example P-64]	80	100	100	100	100	–	100	100	80	100	–	100	90	100	–	80	–
C#CCOCC1CCC2(C1)NC(=O)C(c1c(C)cc(C#CC)cc1OC)=C2OC(=O)OCC (stereo not shown) [Example P-101]	80	100	100	100	100	100	90	100	–	100	80	100	100	100	80	100	–
C#CCOCC1CCC2(C1)NC(=O)C(c1c(C)cc(C#CC)cc1OC)=C2OC(=O)OCC (stereo not shown) [Example P-103]	90	100	100	100	100	100	100	90	–	100	–	100	100	100	90	100	90

— US20220386606A1, “SPECIFICALLY SUBSTITUTED 3-PHENYL-5-SPIROCYCLOPENTYL-3-PYRROLIN-2-ONES AND THEIR USE AS HERBICIDES” (Bayer Aktiengesellschaft, priority 2019, published 2022)
